# Experimental data as given in article PMC12056086 (Nature Communications, 2025).
# Experiments:
# [1] = biological target: human dopamine transporter (hDAT) (Homo sapiens, UniProt Q01959, G386H)
# [2] = biological target: human dopamine transporter (hDAT) (Homo sapiens, UniProt Q01959, K384A)
# [3] = biological target: human dopamine transporter (hDAT) (Homo sapiens, UniProt Q01959, V152I)
# [4] = biological target: human dopamine transporter (hDAT) (Homo sapiens, UniProt Q01959, K92A)
# [5] = biological target: human dopamine transporter (hDAT) (Homo sapiens, UniProt Q01959); assay: cell-based; settings: read-out: single-molecule AFM force spectroscopy on live cells
# Sequence of human dopamine transporter (hDAT) (Homo sapiens, UniProt Q01959) (Q01959 whole entry): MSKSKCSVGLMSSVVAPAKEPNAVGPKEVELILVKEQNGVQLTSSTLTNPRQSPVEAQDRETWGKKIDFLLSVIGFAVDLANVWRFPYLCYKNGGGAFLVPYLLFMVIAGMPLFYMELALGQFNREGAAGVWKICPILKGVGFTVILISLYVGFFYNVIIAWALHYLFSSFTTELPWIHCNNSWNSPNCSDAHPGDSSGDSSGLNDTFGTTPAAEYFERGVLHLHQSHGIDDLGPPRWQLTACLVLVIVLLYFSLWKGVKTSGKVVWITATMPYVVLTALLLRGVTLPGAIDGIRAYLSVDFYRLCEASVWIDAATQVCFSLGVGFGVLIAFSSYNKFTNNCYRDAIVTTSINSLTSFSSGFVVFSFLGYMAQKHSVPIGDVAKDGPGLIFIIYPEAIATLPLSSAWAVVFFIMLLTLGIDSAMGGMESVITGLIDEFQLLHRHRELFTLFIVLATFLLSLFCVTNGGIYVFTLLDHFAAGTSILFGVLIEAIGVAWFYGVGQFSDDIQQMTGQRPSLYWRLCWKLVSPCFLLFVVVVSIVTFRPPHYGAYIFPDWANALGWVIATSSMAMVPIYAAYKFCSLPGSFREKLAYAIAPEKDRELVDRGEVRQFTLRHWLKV
# Sequence of human dopamine transporter (hDAT) (Homo sapiens, UniProt Q01959, K384A) (Q01959 whole entry K384A): as the sequence (Q01959 whole entry) above, with K384A counted along it
# Sequence of human dopamine transporter (hDAT) (Homo sapiens, UniProt Q01959, V152I) (Q01959 whole entry V152I): as the sequence (Q01959 whole entry) above, with V152I counted along it
# Sequence of human dopamine transporter (hDAT) (Homo sapiens, UniProt Q01959, K92A) (Q01959 whole entry K92A): as the sequence (Q01959 whole entry) above, with K92A counted along it
# Sequence of human dopamine transporter (hDAT) (Homo sapiens, UniProt Q01959, G386H) (Q01959 whole entry G386H): as the sequence (Q01959 whole entry) above, with G386H counted along it
structure (smiles),measurement,setting,value
NCCc1ccc(O)c(O)c1 [dopamine],single-molecule AFM force spectroscopy on live cells,[1],"dopamine was still able to bind to the S2 site of DAT-G386H, albeit with lower binding strength"
same,single-molecule AFM force spectroscopy on live cells,[2],"both K92A and K384A diminished the population of weaker unbinding events, indicating that both lysines are involved in the S2 site"
same,single-molecule AFM force spectroscopy on live cells,[3],(V152I) also reduced the population of stronger binding events (d) while the overall binding activity is preserved
same,single-molecule AFM force spectroscopy on live cells,[4],"both K92A and K384A diminished the population of weaker unbinding events, indicating that both lysines are involved in the S2 site"
same,koff,[5],0.11 ± 0.03 s⁻¹
